Assay results published in US6737383B1, “Herbicidal oxadiazolidines” (priority 1999, dated 2004).

Legend:
bedstraw = assay: Test B pre/postemergence bedstraw; assay type: in vivo, Galium aparine
Outline: (§1)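 Test chemicals in a non-phytotoxic solvent mixture with surfactant were sprayed preemergence onto planted seeds and postemergence onto plants 2 to 18 cm tall (1- to 4-leaf stage). After twelve to sixteen days in a greenhouse, injury was visually rated against untreated controls from 0 (no effect) to 10 (complete control).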

blackgrass = assay: Test B pre/postemergence blackgrass; assay type: in vivo, Alopecurus myosuroides
Outline: as §1

surinam grass = assay: Test B pre/postemergence surinam grass; assay type: in vivo, Brachiaria decumbens
Outline: as §1

corn = assay: Test B pre/postemergence corn; assay type: in vivo, Zea mays
Outline: as §1

crabgrass = assay: Test B pre/postemergence crabgrass; assay type: in vivo, Digitaria sanguinalis
Outline: as §1

pigweed = assay: Test B pre/postemergence pigweed; assay type: in vivo, Amaranthus retroflexus
Outline: as §1

rape = assay: Test B pre/postemergence rape; assay type: in vivo, Brassica napus
Outline: as §1

soybean = assay: Test B pre/postemergence soybean; assay type: in vivo, Glycine max
Outline: as §1

sugar beet = assay: Test B pre/postemergence sugar beet; assay type: in vivo, Beta vulgaris
Outline: as §1

velvetleaf = assay: Test B pre/postemergence velvetleaf; assay type: in vivo, Abutilon theophrasti
Outline: as §1

wheat = assay: Test B pre/postemergence wheat; assay type: in vivo, Triticum aestivum
Outline: as §1

wild oat = assay: Test B pre/postemergence wild oat; assay type: in vivo, Avena fatua
Outline: as §1

purple nutsedge = assay: Test B pre/postemergence purple nutsedge; assay type: in vivo, Cyperus rotundus
Outline: as §1

rice = assay: Test B flood test rice; assay type: in vivo, Oryza sativa
Outline: (§2)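 Read-out is a visual response score from 0 (no effect) to 10 (complete control), assigned by comparison with untreated controls. Treatment was applied at the 2-leaf stage, and plants stayed in the greenhouse for twelve to sixteen days before scoring.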

smallflower flatsedge = assay: Test B flood test smallflower flatsedge; assay type: in vivo, Cyperus difformis
Outline: as §2

duck salad = assay: Test B flood test duck salad; assay type: in vivo, Heteranthera limosa
Outline: as §2

[1] = Postemergence, Rate 62 g/ha, scale 0 to 10, 0 is no effect, 10 is complete control
[2] = Postemergence, Rate 250 g/ha, scale 0 to 10, 0 no effect, 10 complete control
[3] = Preemergence, Rate 62 g/ha, scale 0 to 10 (0 no effect, 10 complete control)
[4] = Preemergence, Rate 125 g/ha, scale 0 to 10 (0 no effect, 10 complete control)
[5] = Preemergence, Rate 250 g/ha, scale of 0 to 10 where 0 is no effect and 10 is complete control
[6] = Preemergence, Rate 500 g/ha, scale 0 (no effect) to 10 (complete control)
[7] = Rate 125 g/ha, Postemergence, scale 0 to 10, 0 no effect, 10 complete control
[8] = Rate 500 g/ha, Postemergence, scale 0 to 10, 0 no effect, 10 complete control
[9] = Rate 1000 g/ha, Preemergence, scale 0 to 10 (0 no effect, 10 complete control)
[10] = Postemergence, Rate 125 g/ha, scale of 0 to 10 where 0 is no effect and 10 is complete control
[11] = Postemergence, Rate 1000 g/ha, scale 0 to 10 (0 no effect, 10 complete control)
[12] = Rate 62 g/ha, Postemergence, scale of 0 to 10 where 0 is no effect and 10 is complete control
[13] = Rate 250 g/ha, Postemergence, scale 0 to 10, 0 is no effect, 10 is complete control
[14] = Preemergence, Rate 125 g/ha, 0 is no effect, 10 is complete control
[15] = Postemergence (flood test species), Rate 125 g/ha, scale of 0 to 10 where 0 is no effect and 10 is complete control
[16] = Rate 62 g/ha, Postemergence section, flood test species, scale of 0 to 10 where 0 is no effect and 10 is complete control
[17] = Rate 250 g/ha, Postemergence (flood test), scale 0 to 10, 0 is no effect, 10 is complete control
[18] = Rate 500 g/ha, listed under Postemergence (flood test species), scale 0 to 10, 0 no effect, 10 complete control

CC(C)N(C(=O)n1oc(=O)n(C2CCCCC2C(F)(F)F)c1=O)c1ccc(F)cc1 (stereo not drawn) [Compound 99]
Bedstraw plant response rating (bedstraw; [1]): 3
Bedstraw plant response rating (bedstraw; [2]): 8
Bedstraw plant response rating (bedstraw; [3]): 0
Plant response rating, Bedstraw (bedstraw; [4]): 0
Plant response rating, Bedstraw (bedstraw; [5]): 0
Bedstraw plant response rating (bedstraw; [6]): 0
Bedstraw plant response rating (bedstraw; [7]): 5
Bedstraw plant response rating (bedstraw; [8]): 8
Plant response rating, Bedstraw (bedstraw; [9]): 0
Blackgrass plant response rating (blackgrass; [10]): 3
Blackgrass plant response rating (blackgrass; [2]): 6
Blackgrass plant response rating (blackgrass; [11]): 5
Blackgrass plant response rating (blackgrass; [3]): 0
Plant response rating, Blackgrass (blackgrass; [4]): 3
Plant response rating, Blackgrass (blackgrass; [5]): 4
Blackgrass plant response rating (blackgrass; [6]): 4
Blackgrass plant response rating (blackgrass; [12]): 3
Blackgrass plant response rating (blackgrass; [8]): 6
Plant response rating, Blackgrass (blackgrass; [9]): 7
B. signalgrass plant response rating (surinam grass; [1]): 0
B. signalgrass plant response rating (surinam grass; [2]): 0
B. signalgrass plant response rating (surinam grass; [11]): 4
B. signalgrass plant response rating (surinam grass; [3]): 0
Plant response rating, B. signalgrass (surinam grass; [4]): 0
Plant response rating, B. signalgrass (surinam grass; [5]): 2
B. signalgrass plant response rating (surinam grass; [6]): 3
B. signalgrass plant response rating (surinam grass; [7]): 0
B. signalgrass plant response rating (surinam grass; Rate 500 g/ha, Postemergence, scale of 0 to 10 where 0 is no effect and 10 is complete control): 2
Plant response rating, B. signalgrass (surinam grass; [9]): 6
Corn plant response rating (corn; [10]): 0
Corn plant response rating (corn; [2]): 0
Corn plant response rating (corn; [11]): 0
Corn plant response rating (corn; [3]): 0
Plant response rating, Corn (corn; [4]): 0
Plant response rating, Corn (corn; [5]): 0
Corn plant response rating (corn; [6]): 0
Corn plant response rating (corn; [12]): 0
Corn plant response rating (corn; [8]): 0
Plant response rating, Corn (corn; [9]): 2
Crabgrass plant response rating (crabgrass; [10]): 2
Crabgrass plant response rating (crabgrass; [2]): 4
Crabgrass plant response rating (crabgrass; [11]): 8
Crabgrass plant response rating (crabgrass; [3]): 5
Plant response rating, Crabgrass (crabgrass; [4]): 8
Plant response rating, Crabgrass (crabgrass; [5]): 10
Crabgrass plant response rating (crabgrass; [6]): 10
Crabgrass plant response rating (crabgrass; [12]): 0
Crabgrass plant response rating (crabgrass; [8]): 8
Plant response rating, Crabgrass (crabgrass; [9]): 10
Redroot pigweed plant response rating (pigweed; [10]): 4
Redroot pigweed plant response rating (pigweed; [11]): 7
Redroot pigweed plant response rating (pigweed; [3]): 0
Plant response rating, Redroot pigweed (pigweed; [4]): 0
Plant response rating, Redroot pigweed (pigweed; [5]): 4
Redroot pigweed plant response rating (pigweed; [6]): 10
Redroot pigweed plant response rating (pigweed; [12]): 3
Plant response rating, Redroot pigweed (pigweed; [13]): 5
Redroot pigweed plant response rating (pigweed; [8]): 7
Plant response rating, Redroot pigweed (pigweed; [9]): 10
Rape plant response rating (rape; [10]): 2
Rape plant response rating (rape; [2]): 4
Rape plant response rating (rape; [11]): 7
Rape plant response rating (rape; [3]): 0
Plant response rating, Rape (rape; [4]): 0
Plant response rating, Rape (rape; [5]): 0
Rape plant response rating (rape; [6]): 3
Rape plant response rating (rape; [12]): 2
Rape plant response rating (rape; [8]): 6
Plant response rating, Rape (rape; [9]): 6
Soybean plant response rating (soybean; [10]): 2
Soybean plant response rating (soybean; [11]): 3
Soybean plant response rating (soybean; [3]): 0
Plant response rating, Soybean (soybean; [4]): 0
Plant response rating, Soybean (soybean; [5]): 0
Soybean plant response rating (soybean; [6]): 0
Soybean plant response rating (soybean; [12]): 2
Plant response rating, Soybean (soybean; [13]): 3
Soybean plant response rating (soybean; [8]): 4
Plant response rating, Soybean (soybean; [9]): 2
Sugarbeets plant response rating (sugar beet; [10]): 4
Sugarbeets plant response rating (sugar beet; [11]): 5
Sugarbeets plant response rating (sugar beet; [3]): 0
Sugarbeets plant response rating (0 to 10 scale) (sugar beet; [14]): 2
Plant response rating, Sugarbeets (sugar beet; [5]): 2
Sugarbeets plant response rating (sugar beet; [6]): 4
Sugarbeets plant response rating (sugar beet; [12]): 2
Plant response rating, Sugarbeets (sugar beet; [13]): 4
Sugarbeets plant response rating (sugar beet; [8]): 5
Plant response rating, Sugarbeets (sugar beet; [9]): 6
Velvetleaf plant response rating (velvetleaf; [10]): 3
Velvetleaf plant response rating (velvetleaf; [11]): 7
Velvetleaf plant response rating (velvetleaf; [3]): 0
Velvetleaf plant response rating (0 to 10 scale) (velvetleaf; [14]): 0
Plant response rating, Velvetleaf (velvetleaf; [5]): 0
Velvetleaf plant response rating (velvetleaf; [6]): 3
Velvetleaf plant response rating (velvetleaf; [12]): 0
Plant response rating, Velvetleaf (velvetleaf; [13]): 3
Velvetleaf plant response rating (velvetleaf; [8]): 5
Plant response rating, Velvetleaf (velvetleaf; [9]): 0
Wheat plant response rating (wheat; [10]): 0
Wheat plant response rating (wheat; [11]): 2
Wheat plant response rating (wheat; [3]): 0
Wheat plant response rating (0 to 10 scale) (wheat; [14]): 0
Plant response rating, Wheat (wheat; [5]): 2
Wheat plant response rating (wheat; [6]): 2
Wheat plant response rating (wheat; [12]): 0
Plant response rating, Wheat (wheat; [13]): 0
Wheat plant response rating (wheat; [8]): 0
Plant response rating, Wheat (wheat; [9]): 2
Wild oats plant response rating (wild oat; [10]): 0
Wild oats plant response rating (wild oat; [11]): 3
Wild oats plant response rating (wild oat; [3]): 0
Wild oats plant response rating (0 to 10 scale) (wild oat; [14]): 3
Plant response rating, Wild oats (wild oat; [5]): 3
Wild oats plant response rating (wild oat; [6]): 5
Wild oats plant response rating (wild oat; [12]): 0
Plant response rating, Wild oats (wild oat; [13]): 0
Wild oats plant response rating (wild oat; [8]): 0
Plant response rating, Wild oats (wild oat; [9]): 7
Nutsedge plant response rating (purple nutsedge; [10]): 0
Nutsedge plant response rating (purple nutsedge; [2]): 0
Nutsedge plant response rating (purple nutsedge; [11]): 0
Nutsedge plant response rating (purple nutsedge; [3]): 0
Plant response rating, Nutsedge (purple nutsedge; [4]): 0
Plant response rating, Nutsedge (purple nutsedge; [5]): 0
Nutsedge plant response rating (purple nutsedge; [6]): 6
Nutsedge plant response rating (purple nutsedge; [12]): 0
Nutsedge plant response rating (purple nutsedge; [8]): 0
Plant response rating, Nutsedge (purple nutsedge; [9]): 10
Rice plant response rating (rice; [15]): 0
Rice plant response rating (rice; [11]): 0
Rice plant response rating (rice; [16]): 0
Plant response rating, Rice (rice; [17]): 0
Rice plant response rating (rice; [18]): 0
S. Flatsedge plant response rating (smallflower flatsedge; [15]): 0
S. Flatsedge plant response rating (smallflower flatsedge; [11]): 3
S. Flatsedge plant response rating (smallflower flatsedge; [16]): 0
Plant response rating, S. Flatsedge (smallflower flatsedge; [17]): 0
S. Flatsedge plant response rating (smallflower flatsedge; [18]): 2
Ducksalad plant response rating (duck salad; [15]): 0
Ducksalad plant response rating (duck salad; [11]): 3
Ducksalad plant response rating (duck salad; [16]): 0
Ducksalad plant response rating (duck salad; [18]): 2
Ducksalad plant response rating (duck salad; flood test, listed under Postemergence, Rate 250 g/ha, scale 0 to 10, 0 no effect, 10 complete control): 2
